What all share (type): in vivo
In one experiment the test system is Phytophthora infestans. As to the kind of experiment: whole plant or invertebrate. Particulars: 250 ppm; tomato seedlings; 100 = 100% disease control, 0 = no control.
The test system of a further experiment is Botrytis cinerea. As to the kind of experiment: Test C: preventive spray on tomato seedlings, gray mold, visual disease rating. Particulars: 250 ppm, 100 = 100% disease control, 0 = no control. The method in brief: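 Tomato seedlings received a run-off spray, typically 250 ppm (or stated rate), ahead of gray mold inoculation and visual scoring. Test suspensions: acetone stock (3% of volume) diluted into 1:1 acetone/water containing PEG400.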

In experiment [1] the test system is Erysiphe graminis f. sp. tritici. As to the kind of experiment: Test G: preventive spray on wheat seedlings, wheat powdery mildew, visual disease rating. As to conditions: 250 ppm, 100 = 100% disease control, 0 = no control. A digest of the protocol: (§1)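 Preventive foliar spray of wheat seedlings to run-off, at 250 ppm or other indicated rate. Compounds dissolved in acetone (3% of final volume), suspended in 50/50 acetone–water with PEG400 surfactant. Disease rated visually.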

A further experiment concerns Phakopsora pachyrhizi. As to the kind of experiment: Test A: preventive spray on soybean seedlings, Asian soybean rust, visual disease rating. Particulars: 250 ppm, 100 = 100% disease control, 0 = no control.
Experiment [2] deals with Puccinia recondita f. sp. tritici. As to the kind of experiment: Test F: preventive spray on wheat seedlings, wheat leaf rust, visual disease rating. Particulars: 250 ppm, 100 = 100% disease control, 0 = no control. A digest of the protocol: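 Preventive test: wheat seedlings were sprayed to run-off with compound suspended in acetone/water 50/50 plus PEG400 (250 ppm or other indicated rate). One day later they received Puccinia recondita f. sp. tritici spores, and disease was scored visually.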

For another experiment, the system named is Plasmopara viticola. As to the kind of experiment: Test B: preventive spray on grape seedlings, grape downy mildew, disease rating. As to conditions: 250 ppm, 100 = 100% disease control, 0 = no control. A digest of the protocol: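 Compounds were dissolved in acetone (3% of final volume) and suspended in 50/50 acetone/water with PEG400. They were sprayed at 250 ppm or another indicated rate to run-off on grape seedlings as a preventive treatment before downy mildew challenge, followed by disease rating.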

Another experiment deals with Zymoseptoria tritici. As to the kind of experiment: Test E: preventive spray on wheat seedlings, wheat leaf blotch, visual disease rating. Particulars: 250 ppm, 100 = 100% disease control, 0 = no control. The method in brief:
as §1

Eight compounds from patent US20190133128A1, “Fungicidal pyridazinones” (FMC Corporation, priority 2017, published 2019) can be followed below.

As to `Cn1ncc(O)c(C(=O)Nc2ccc(F)cc2Cl)c1=O` [Compound 134], in the experiment on Phytophthora infestans, the “Test D disease control rating” value is recorded as 0%. Also, in the experiment with Botrytis cinerea, the “Test C disease control rating” value turned out to be 0%. Also, the “Test G disease control rating” value in experiment [1] was 90%. In addition, the “Test A disease control rating” value in the experiment on Phakopsora pachyrhizi worked out at 75%. Also, in experiment [2], the “Test F disease control rating” value was found to be 32%. Further, the “Test B disease control rating” value with Plasmopara viticola is on record as 92%. The “Test E disease control rating” value in the experiment on Zymoseptoria tritici was determined as 45%.

On to `CON(C)c1cnn(C)c(=O)c1C(=O)Nc1ccc(OC(F)(F)F)cc1` [Compound 135], for which the “Test D disease control rating” value in the experiment on Phytophthora infestans was 0%. Also, the “Test C disease control rating” value with Botrytis cinerea is 0%. For the same compound, in experiment [1], the “Test G disease control rating” value was 0%. Besides, in the experiment with Phakopsora pachyrhizi, the “Test A disease control rating” value is on record as 0%. Moreover, the “Test F disease control rating” value in experiment [2] came out at 0%. Also, the “Test B disease control rating” value in the experiment on Plasmopara viticola is 27%. In addition, the “Test E disease control rating” value in the experiment on Zymoseptoria tritici is reported as 2%.

As for `Cn1ncc(O)c(C(=O)Nc2ccc(C(F)(F)F)cc2Cl)c1=O` [Compound 137], the “Test D disease control rating” value in the experiment on Phytophthora infestans stood at 97%. Further, the “Test C disease control rating” value in the experiment on Botrytis cinerea was found to be 0%. Besides, the “Test G disease control rating” value in experiment [1] was 47%. Besides, the “Test A disease control rating” value with Phakopsora pachyrhizi is recorded as 0%. In experiment [2], the “Test F disease control rating” value was 96%. Moreover, the “Test B disease control rating” value with Plasmopara viticola worked out at 100%. The “Test E disease control rating” value in the experiment on Zymoseptoria tritici came to 30%.

Take `Cn1ncc(O)c(C(=O)Nc2ccc(CC(F)(F)F)cc2)c1=O` [Compound 140]: the “Test D disease control rating” value with Phytophthora infestans amounted to 96%. For the same compound, the “Test C disease control rating” value in the experiment with Botrytis cinerea came out at 0%. The “Test G disease control rating” value in experiment [1] is listed as 27%. The “Test A disease control rating” value in the experiment with Phakopsora pachyrhizi worked out at 0%. Besides, in experiment [2], the “Test F disease control rating” value was determined as 99%. Besides, in the experiment on Plasmopara viticola, the “Test B disease control rating” value amounted to 100%. For the same compound, the “Test E disease control rating” value in the experiment with Zymoseptoria tritici was 88%.

As to `Cn1ncc(O)c(C(=O)Nc2ccc(OC(F)(F)F)cc2Cl)c1=O` [Compound 142], the “Test D disease control rating” value in the experiment on Phytophthora infestans was found to be 92%. Besides, the “Test C disease control rating” value in the experiment with Botrytis cinerea worked out at 26%. Further, the “Test G disease control rating” value in experiment [1] came out at 98%. Moreover, in the experiment on Phakopsora pachyrhizi, the “Test A disease control rating” value is 71%. The “Test F disease control rating” value in experiment [2] is 99%. The “Test B disease control rating” value in the experiment with Plasmopara viticola is on record as 99%. Besides, the “Test E disease control rating” value with Zymoseptoria tritici worked out at 77%.

`CCCC[N+](CCCC)(CCCC)CCCC.Cn1ncc([O-])c(C(=O)Nc2ccc(S(F)(F)(F)(F)F)cc2)c1=O` [Compound 143]: the “Test D disease control rating” value in the experiment with Phytophthora infestans was 70%. Besides, in the experiment on Botrytis cinerea, the “Test C disease control rating” value was 0%. In addition, the “Test G disease control rating” value in experiment [1] is 69%. Besides, in the experiment with Phakopsora pachyrhizi, the “Test A disease control rating” value turned out to be 62%. The “Test F disease control rating” value in experiment [2] is 94%. In the experiment with Plasmopara viticola, the “Test B disease control rating” value came out at 100%. The “Test E disease control rating” value in the experiment with Zymoseptoria tritici is 88%.

For the compound `CNc1cnn(C)c(=O)c1C(=O)Nc1ccc(OC(F)(F)F)cc1` [Compound 146], in the experiment on Phytophthora infestans, the “Test D disease control rating” value is 0%. The “Test C disease control rating” value in the experiment with Botrytis cinerea was 0%. For the same compound, the “Test G disease control rating” value in experiment [1] stood at 0%. Further, the “Test A disease control rating” value with Phakopsora pachyrhizi is reported as 0%. The “Test F disease control rating” value in experiment [2] came to 0%. In addition, the “Test B disease control rating” value in the experiment with Plasmopara viticola amounted to 10%. Moreover, the “Test E disease control rating” value in the experiment with Zymoseptoria tritici is on record as 0%.

`Cn1ncc(O)c(C(=O)Nc2ccc(C(F)(F)F)cc2C(F)(F)F)c1=O` [Compound 147]: in the experiment with Phytophthora infestans, the “Test D disease control rating” value worked out at 99%. For the same compound, the “Test C disease control rating” value with Botrytis cinerea is given as 0%. Also, in experiment [1], the “Test G disease control rating” value was determined as 98%. For the same compound, the “Test A disease control rating” value in the experiment on Phakopsora pachyrhizi came out at 0%. The “Test F disease control rating” value in experiment [2] is listed as 99%. In addition, in the experiment with Plasmopara viticola, the “Test B disease control rating” value is on record as 97%. Also, the “Test E disease control rating” value with Zymoseptoria tritici turned out to be 87%.
